Several values for one entry are separate records, joined by “and”; a condition that tells them apart may be missing. Equal entries are not always repeated.
Key:
[1] = tested on: BxPC-3 pancreas tumor cell line; assay: BxPC-3 human pancreas tumor xenograft model: tumor weight, tumor growth inhibition (TGI); format: in vivo, female athymic nude mice; conditions: for Tumor weight, Mean / Tumor weight, Median / Tumor weight, individual mice: Group 2: ODSH 24 mg/kg BID, IV Days 1-11, SC Days 12-end
Experimental: Compounds tested in the experiment were as follows. ODSH was made by Pyramid Laboratories, Inc. (Costa Mesa, Calif.). ODSH was provided at a stock concentration of 50 mg/ml and stored at room temperature until use. ODSH was diluted in a 0.9% NaCl solution (B. Braun Medical Inc., Irvine, Calif.) to a concentration of 2.4 mg/ml to deliver 24 mg/kg, in a 10 ml/kg dose volume when administered intravenously. A concentration of 4.8 mg/ml was formulated to deliver a 24 mg/kg dose at a 5 ml/kg dose volume when administered subcutaneously. ODSH was formulated fresh prior to each dose.
Nab-paclitaxel was manufactured by Abraxis BioScience LLC (Bridgewater, N.J.) and diluted in a 0.9% NaCl solution to a concentration of 1.5 mg/ml to deliver 15 mg/kg, in a 10 ml/kg dose volume. All standard agent preparations were made fresh prior to their administration.
BxPC-3 cells were obtained and prepared as follows. The BxPC-3 pancreas tumor cell line was received from American Type Culture Collection (ATCC, Manassas, Va.). Cultures were maintained in RPMI 1640 medium (Hyclone, Logan, Utah) supplemented with 5% fetal bovine serum. The cells were housed in a 5% CO2 atmosphere. The cultures were expanded in tissue culture flasks at a 1:3 split ratio until a sufficient amount of cells were harvested.
BxPC-3 Human Pancreas Tumor Xenograft Model: Female athymic nude mice per treatment condition were inoculated subcutaneously in the right flank with 0.1 ml of a 50% RPMI 1640/50% Matrigel™ (BD Biosciences, Bedford, Mass.) mixture containing a suspension of BxPC-3 tumor cells (approximately 5×10^6 cells/mouse).
Study Director V.1.7.54k (Study Log).
Mean tumor growth inhibition (TGI) was calculated utilizing Formula A below (deaths were not included in the TGI calculations).
All statistical analyses in the xenograft study were performed with GraphPad Prism® v4 software.

[2] = tested on: CA19-9 (carbohydrate antigen 19-9); assay: Clinical trial: serum level of CA19-9; format: in vivo, human; conditions: for CA19-9 Serum levels: individual patients, ODSH adjunctive to gemcitabine and nab-paclitaxel
Experimental: Treatment consisted of a series of 28-day cycles, wherein the last day of one cycle (e.g., day 28, cycle 1) was immediately followed by the first day of the next cycle (e.g., day 1, cycle 2). In each 28-day treatment cycle, patients were dosed at days 1, 8, and 15 (three weeks of medication followed by one week of rest) as follows. First, nab-paclitaxel at 125 mg/m^2 was administered as an intravenous infusion over 30 minutes. […] Nab-paclitaxel and gemcitabine therapy was given as described in the prescribing information for Abraxane® and Gemzar®. See also, Von Hoff et al., 2011, J. Clinical Oncology 29:1-7). […]
Blood samples were also tested on day 1 of each treatment cycle for the serum level of CA19-9 (carbohydrate antigen 19-9) a marker used to assess the efficacy of the chemotherapy agents in treating pancreatic cancer. See. e.g., Maeda, 2011, Int. J. Clin. Oncol. 16(5):539-45. Reduction in the serum level of CA19-9 is indicative of chemotherapeutic efficacy against the pancreatic cancer. Tumor response and disease status was measured according to Response Evaluation Criteria in Solid Tumors (RECIST) Guidelines Version 1.1. Eur. J. Cancer, 2009, 45:228-247. A reduction of at least 30% in the sum of the diameters of target lesions (measurable lesions present at screening, up to 2 lesions per involved organ) was scored as a partial response. Patients were scored as having stable disease where the smallest sum of target lesion diameters neither decreased nor increased sufficiently to qualify as a partial response or progressive disease.

[3] = format: in vivo, human
Experimental: Treatment consisted of a series of 28-day cycles, wherein the last day of one cycle (e.g., day 28, cycle 1) was immediately followed by the first day of the next cycle (e.g., day 1, cycle 2). In each 28-day treatment cycle, patients were dosed at days 1, 8, and 15 (three weeks of medication followed by one week of rest) as follows. First, nab-paclitaxel at 125 mg/m^2 was administered as an intravenous infusion over 30 minutes. […] Nab-paclitaxel and gemcitabine therapy was given as described in the prescribing information for Abraxane® and Gemzar®. See also, Von Hoff et al., 2011, J. Clinical Oncology 29:1-7).
As a substantially non-anticoagulant heparinoid, ODSH can be administered at a dose that is greater than the fully anticoagulant dose of unfractionated heparin, without concern for anticoagulant effect, as shown in the Results below.

[4] = ANOVA with Tukey's Multiple Comparison Test, BxPC-3 xenograft
[5] = ODSH adjunct to gemcitabine/nab-paclitaxel

## substantially 2-O, 3-O desulfated heparin [ODSH]
[1]; [4]
  Difference in tumor weight compared to vehicle control, Day 26: No significant difference
  Difference in tumor weight compared to vehicle control, Day 36: significant difference
[1]; Day 1
  Tumor weight, Mean: 122.4 mg
  Tumor weight, Median: 22.9 mg
  Tumor weight, individual mice: 114 mg and 116 mg and 172 mg and 94 mg and 131 mg and 106 mg and 125 mg and 143 mg and 129 mg and 140 mg
[1]; Day 4
  Tumor weight, Mean: 134.0 mg
  Tumor weight, Median: 28.6 mg
  Tumor weight, individual mice: 98 mg and 110 mg and 141 mg and 97 mg and 181 mg and 135 mg and 130 mg and 144 mg and 133 mg
[1]; Day 8
  Tumor weight, Mean: 146.0 mg
  Tumor weight, Median: 40.4 mg
  Tumor weight, individual mice: 118 mg and 144 mg and 183 mg and 125 mg and 222 mg and 126 mg and 155 mg and 157 mg and 148 mg
[1]; Day 11
  Tumor weight, Mean: 187.6 mg
  Tumor weight, Median: 162.1 mg
  Tumor weight, individual mice: 288 mg and 142 mg and 175 mg and 243 mg and 146 mg and 252 mg and 137 mg and 140 mg and 203 mg
[1]; Day 15
  Tumor weight, Mean: 263.0 mg
  Tumor weight, Median: 250.0 mg
  Tumor weight, individual mice: 340 mg and 224 mg and 263 mg and 348 mg and 237 mg and 321 mg and 208 mg and 218 mg and 264 mg
[1]; Day 18
  Tumor weight, Mean: 338.5 mg
  Tumor weight, Median: 304.7 mg
  Tumor weight, individual mice: 489 mg and 291 mg and 288 mg and 419 mg and 256 mg and 415 mg and 318 mg and 278 mg and 352 mg
[1]; Day 22
  Tumor weight, Mean: 453.8 mg
  Tumor weight, Median: 425.4 mg
  Tumor weight, individual mice: 622 mg and 360 mg and 400 mg and 556 mg and 402 mg and 551 mg and 449 mg and 326 mg and 515 mg
[1]; Day 26
  Tumor weight, Mean: 616.2 mg
  Tumor weight, Median: 551.3 mg
  Tumor weight, individual mice: 894 mg and 478 mg and 529 mg and 770 mg and 573 mg and 724 mg and 524 mg and 394 mg and 766 mg
[1]; Day 26 vs Day 1, compared to vehicle control, BxPC-3 xenograft, ODSH 24 mg/kg BID, oxaliplatin 10 mg/kg, gemcitabine 80 mg/kg (Table 1)
  TGI (mean tumor growth inhibition), Day 26: 11.5%
[1]; Day 30
  Tumor weight, Mean: 882.3 mg
  Tumor weight, Median: 856.4 mg
  Tumor weight, individual mice: 1,083 mg and 756 mg and 893 mg and 1,201 mg and 820 mg and 945 mg and 764 mg and 555 mg and 1,109 mg
[1]; Day 33
  Tumor weight, Mean: 1,038.6 mg
  Tumor weight, Median: 979.8 mg
  Tumor weight, individual mice: 1,218 mg and 999 mg and 961 mg (2×) and 1,309 mg and 1,087 mg and 871 mg and 733 mg and 1,340 mg
[1]; Day 36
  Tumor weight, Median: 1,151.5 mg
  Tumor weight, individual mice: 1,450 mg and 1,153 mg and 1,150 mg (2×) and 1,654 mg and 1,376 mg and 1,037 mg and 836 mg and 1,823 mg
[1]; Day 36 vs Day 1, compared to vehicle control, BxPC-3 xenograft, ODSH 24 mg/kg BID, oxaliplatin 10 mg/kg, gemcitabine 80 mg/kg, nab-paclitaxel 15 mg/kg (Table 1)
  TGI (mean tumor growth inhibition), Day 36: 18.2%
[1]; Table 14, treatment administered until Day 26
  Day 26 Tumor Weight: 616.2 ± 50.9 mg
[1]; Table 15, treatment administered until Day 35
  Day 26 Tumor Weight: 1270.1 ± 95.5 mg
[2]; [5]
  Patients in whom serum CA19-9 level decreased: 8 of 10
[2]; Cycle 1 Day 1
  CA19-9 Serum levels: 395 U/mL and 70,086 U/mL and 2,138 U/mL and 483 U/mL and 11 U/mL and 326 U/mL and 4,775 U/mL and 125 U/mL and 6,186 U/mL and 6,275 U/mL
[2]; Cycle 2 Day 1
  CA19-9 Serum levels: 490 U/mL and 22,958 U/mL and 502 U/mL and 453 U/mL and 17 U/mL and 710 U/mL and 5,934 U/mL and 71 U/mL and 4,392 U/mL and 4,018 U/mL
[2]; Cycle 3 Day 1
  CA19-9 Serum levels: 251 U/mL and 10,286 U/mL and 328 U/mL and 205 U/mL and 15 U/mL and 164 U/mL and 8,529 U/mL and 27 U/mL and 2,669 U/mL and 1,433 U/mL
[2]; Cycle 4 Day 1
  CA19-9 Serum levels: 108 U/mL and 288 U/mL and 110 U/mL and 20 U/mL and 69 U/mL and 9,926 U/mL and 15 U/mL and 2405 U/mL and 348 U/mL
[3]; [5]
  Effect on patient weight: minimum weight loss or even some weight gain
[3]; individual patients, ODSH adjunctive to gemcitabine and nab-paclitaxel, Cycle 6 Day 1
  Weight: 176 pounds and 133 pounds and 157 pounds

From patent US11229664B2, “Treatment of myelosuppression” (priority 2012, dated 2022)
